From patent US6448269B1 (Eli Lilly and Company, priority 1993, dated 2002)
Where a name gives a salt, the structure may show the parent alone.

molecular target: T1, GPIIb-IIIa (Homo sapiens, UniProt P05106+P08514); assay: ELISA IIb-IIIa assay (fibrinogen binding to immobilized GPIIb-IIIa); conditions: purified platelet GPIIb-IIIa receptor coated on ELISA plates; biotin-labeled fibrinogen 10 nM, 3 hours at 25° C.
T1 construct: Purified platelet GPIIb-IIIa receptor was prepared as described by Fitzgerald; from tissue; host or cells: platelets
T1 sequence (P08514 32-887 limits assumed): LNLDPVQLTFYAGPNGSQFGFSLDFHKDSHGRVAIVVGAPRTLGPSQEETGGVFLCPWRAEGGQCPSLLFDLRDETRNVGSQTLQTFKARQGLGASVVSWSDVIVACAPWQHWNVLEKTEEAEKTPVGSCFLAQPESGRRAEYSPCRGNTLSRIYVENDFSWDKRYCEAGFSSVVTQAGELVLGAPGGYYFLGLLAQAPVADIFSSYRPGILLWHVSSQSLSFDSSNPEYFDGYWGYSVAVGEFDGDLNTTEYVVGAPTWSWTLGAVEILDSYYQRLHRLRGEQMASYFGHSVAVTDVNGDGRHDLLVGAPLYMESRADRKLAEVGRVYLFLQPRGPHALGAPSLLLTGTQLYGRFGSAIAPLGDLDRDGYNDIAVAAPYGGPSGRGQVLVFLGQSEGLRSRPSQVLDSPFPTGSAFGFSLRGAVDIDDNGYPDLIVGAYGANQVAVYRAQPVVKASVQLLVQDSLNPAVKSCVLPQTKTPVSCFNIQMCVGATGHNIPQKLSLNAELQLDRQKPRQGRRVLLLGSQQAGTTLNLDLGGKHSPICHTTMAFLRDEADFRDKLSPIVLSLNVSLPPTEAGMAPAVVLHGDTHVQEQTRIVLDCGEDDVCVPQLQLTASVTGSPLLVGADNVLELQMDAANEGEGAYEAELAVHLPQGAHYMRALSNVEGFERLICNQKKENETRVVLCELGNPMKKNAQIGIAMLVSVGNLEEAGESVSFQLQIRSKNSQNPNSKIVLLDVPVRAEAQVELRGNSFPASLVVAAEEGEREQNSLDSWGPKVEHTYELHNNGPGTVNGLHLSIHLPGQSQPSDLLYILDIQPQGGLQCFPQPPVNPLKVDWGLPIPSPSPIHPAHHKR
T1 sequence (P05106 27-788): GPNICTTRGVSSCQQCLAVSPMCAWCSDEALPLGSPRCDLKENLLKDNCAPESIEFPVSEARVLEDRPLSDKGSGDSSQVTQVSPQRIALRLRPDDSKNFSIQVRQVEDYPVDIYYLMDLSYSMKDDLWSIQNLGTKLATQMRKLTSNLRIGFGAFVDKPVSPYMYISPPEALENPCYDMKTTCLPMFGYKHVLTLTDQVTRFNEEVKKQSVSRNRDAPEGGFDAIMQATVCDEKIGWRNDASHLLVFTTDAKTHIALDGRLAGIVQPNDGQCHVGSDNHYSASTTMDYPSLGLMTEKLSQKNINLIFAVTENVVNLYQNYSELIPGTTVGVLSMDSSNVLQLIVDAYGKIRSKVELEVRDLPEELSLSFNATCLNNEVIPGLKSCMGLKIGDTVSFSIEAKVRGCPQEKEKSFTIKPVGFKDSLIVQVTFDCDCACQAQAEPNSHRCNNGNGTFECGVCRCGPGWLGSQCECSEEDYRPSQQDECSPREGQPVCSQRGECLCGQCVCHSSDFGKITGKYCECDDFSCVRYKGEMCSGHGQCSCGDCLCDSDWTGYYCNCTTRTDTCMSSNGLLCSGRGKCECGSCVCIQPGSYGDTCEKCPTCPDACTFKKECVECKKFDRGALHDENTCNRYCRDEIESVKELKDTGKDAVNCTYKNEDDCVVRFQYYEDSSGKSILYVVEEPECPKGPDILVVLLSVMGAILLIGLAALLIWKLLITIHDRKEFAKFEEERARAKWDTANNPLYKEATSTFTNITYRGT
Method: In the following assay, GPIIb-IIIa is prepared in purified form, by a method such as described by Fitzgerald, L. A., et al., Anal Biochem (1985) 151:169-177, (the disclosure of which is incorporated herein by reference). GPIIb-IIIa is coated onto microtiter plates. The coated support is then contacted with fibrinogen and with the test material (e.g., compounds of Formula I) and incubated for a sufficient time to permit maximal binding of fibrinogen to the immobilized GPIIb-IIIa. Fibrinogen is typically provided at a concentration of about 5-50 nM and the test material can, if desired, be added at a series of dilution. Typical incubations are 2 to 4 hours at 25° C., the time and temperature being interdependent.
After incubation, the solution containing the fibrinogen and test material is removed and the level of binding of fibrinogen measured by quantitating bound fibrinogen to GPIIb-IIIa. Any suitable means of detection may be used, but it is convenient to employ labeled fibrinogen, for example using biotinylated labels. Such methods are well known in the art.
Purified platelet GPIIb-IIIa receptor was prepared as described by Fitzgerald, L. A., et al., Anal Biochem (1985) 151:169-177 (1985). Vitronectin receptor was prepared as described by Smith, J. W., J. Biol Chem (1988) 263:18726-18731. After purification, the receptors were stored in 0.1% Triton X-100 at 0.1-1.0 mg/ml.
The receptors were coated to the wells of 96-well flat-bottom ELISA plates (Linbro EIA-Plus microtiter plate, Flow Laboratories) after diluting 1:200 with a solution of 20 mM Tris-HCl, 150 mM NaCl, 1 mM CaCl2, pH 7.4, to reduce the Triton X-100 concentration to below its critical micellar concentration and adding an aliquot of 100 ul to each well. The wells were all allowed to incubate overnight at 4° C., and then aspirated to dryness. Additional sites were blocked by the addition of bovine serum albumin (BSA) at 35 mg/ml in the above buffer for 2 hours at 30° C. to prevent nonspecific binding. The wells were then washed once with binding buffer ([…] Tris-HCl, 100 mM NaCl 2 mM CaCl2, 1 mg/ml BSA).
The corresponding ligands (fibrinogen, von Willebrand Factor, or vitronectin) were conjugated to biotin using commercially available reagents and standard protocols. The labeled ligands were added to the receptor-coated wells at final concentration of 10 nM (100 ul/well) and incubated for 3 hours at 25° C. in the presence or absence of the test samples. After incubation, the wells are aspirated to dryness and bound ligand is quantitated.
The bound protein is detected by the addition of antibiotin antibody conjugated to alkaline phosphatase followed by addition of substrate (p-nitrophenyl phosphate), and determination of the optical density of each well at […]. Decreased color development is observed in wells incubated with test samples which inhibit binding of ligand to receptor.

IC50 [µM]	Compound
> 1	CCOC(=O)CC1CCc2cc(NC(=O)c3ccc(C(=N)NC(=O)OCC)cc3)ccc2O1 (racemic) [Example 68]
0.22	O=C(O)CNC1CCc2cc(OCCCC3CCNCC3)ccc2C1 (centres unmarked) [Example 25]
0.11	CC(=O)N(CC(=O)O)C1CCc2cc(OCc3ccc(C(=N)N)cc3)ccc2C1 (centres unmarked) [Example 27]
0.16	N=C(N)c1ccc(COc2ccc3c(c2)CCN(C(=O)C(=O)O)C3)cc1 [Example 44]
0.52	N=C(N)c1ccc(COc2ccc3c(c2)CCC(NCC(=O)O)C3)cc1 (centres unmarked) [Example 26]
0.005	N=C(N)c1ccc(COc2ccc3cc(CC(=O)O)ccc3c2)cc1 [Example 33]

Compound	IC50 [µM]
CCNC(=N)c1ccc(C(=O)Nc2ccc3c(c2)CCC(CC(=O)OCC)O3)cc1 (racemic) [Example 71, Hydrochloride]	> 10
N=C(N)Nc1ccc(C(=O)Nc2ccc3c(c2)CCC(CC(=O)O)O3)cc1 (racemic) [Example 65, rac-(6-(N-(4-((Aminoiminomethyl)amino)benzoyl)amino)-3,4-dihydro-2H-1-benzopyran-2-yl)acetic Acid]	0.18

tested on: human platelet-rich plasma; assay: Platelet aggregation assay (Aggregation-Human PRP/ADP); type: cell-based; conditions: 1 min; human platelet-rich plasma incubated with compound 1 minute at 37° C.; ADP-induced aggregation; read-out: Agg: Human PRP/ADP IC50uM
Method: Platelet-rich plasma was prepared from healthy human volunteers for use in determining inhibition of platelet aggregation by the compounds.
Platelet-rich plasma was prepared at room temperature by centrifugation of the citrated whole blood at 100×g for 12 minutes. The platelet rich plasma contained approximately 200-400,000 platelets/μl.
Platelet-poor plasma was prepared by centrifugation of citrated whole blood at 12,000×g for 2 minutes.
Platelet aggregation was assayed in a 4-channel platelet aggregation profiler (PAP-4, Biodata, Hatboro, Pa.) according to the manufacturers directions. Inhibition of platelet aggregation was studied by adding varying amounts of […] to stirred human platelet-rich plasma. Specifically, the human platelet-rich plasma was incubated with the compound being tested for 1 minute at 37° C. prior to the addition of a variety of aggregating agents most often ADP 5 μM, but also 1 μg/ml collagen, 1 μM U46619 and 0.3 μM platelet activating factor.

Compound	IC50 [µM]
CCOC(=O)CC1CCc2cc(NC(=O)c3ccc(C(=N)N)cc3Cl)ccc2C1=O (racemic) [Example 62, Hydrochloride]	6.8
CCNC(=N)c1ccc(C(=O)Nc2ccc3c(c2)CCC(CC(=O)OCC)O3)cc1 (racemic) [Example 71, Hydrochloride]	1.5
N=C(N)Nc1ccc(C(=O)Nc2ccc3c(c2)CCC(CC(=O)O)O3)cc1 (racemic) [Example 65, rac-(6-(N-(4-((Aminoiminomethyl)amino)benzoyl)amino)-3,4-dihydro-2H-1-benzopyran-2-yl)acetic Acid]	4.8
CCCOC(=O)NC(=N)c1ccc(C(=O)Nc2ccc3c(c2)CCC(CC(=O)OCC)O3)cc1 (racemic) [Example 85]	> 100
CCOC(=O)CCC1(C)C=Cc2cc(OCc3ccc(C(=N)N)cc3)ccc2O1 (racemic) [Example 52, Hydrochloride]	100
CC1(CCC(=O)O)CC(=O)c2cc(OCc3ccc(C(=N)N)cc3)ccc2O1 (racemic) [Example 67, Hydrochloride]	29
CCOC(=O)CC1CCc2cc(NC(=O)c3ccc(C(=N)N)cc3Cl)ccc2O1 (racemic) [Example 75, acetate Hydrochloride]	1.8
CCOC(=O)CCC1(C)CC(=O)c2cc(OCc3ccc(C(=N)N)cc3)ccc2O1 (racemic) [Example 66, Hydrochloride]	> 100
N=C(N)NCc1ccc(COc2ccc3c(c2)CCN(CC(=O)O)C3=O)cc1 [Example 21, 6-[[4-(Guanidinomethyl)phenyl]methoxy]-3,4-dihydro-1-oxo-2(1H)-isoquinoline Acetic Acid Trifluoroacetate]	> 100
CC1(C)CC(CC(=O)O)Oc2ccc(NC(=O)c3ccc(C(=N)N)cc3)cc21 (racemic) [Example 80, rac-(6-(N-(4-(Aminoiminomethyl)benzoyl)amino)-3,4-dihydro-4,4-dimethyl-2H-1-benzopyran-2-yl)acetic Acid]	> 100
CCOC(=O)CC1CC(C)(C)c2cc(NC(=O)c3ccc(C(=N)N)cc3)ccc2O1 (racemic) [Example 79, Hydrochloride]	> 100
N=C(N)c1ccc(C(=O)Nc2ccc3c(c2)CCC(CC(=O)O)C3=O)cc1 (centres unmarked) [Example 30]	0.06
CCOC(=O)CC1CCc2cc(NC(=O)c3ccc(C(=N)NCc4ccccc4)cc3)ccc2O1 (racemic) [Example 92, Ethyl rac-(3,4-Dihydro-6-(N-(4-(N′-(phenylmethylamino)iminomethyl)benzoyl)amino)-2H-1-benzopyran-2-yl)acetate Hydrochloride]	0.24
O=C(O)CC1CCc2cc(OCCCCC3CCNCC3)ccc2O1 (racemic) [Example 54, rac-(3,4-Dihydro-6-(4-(piperidin-4-yl)butoxy)-2H-1-benzopyran-2-yl)acetic Acid Trifluoroacetate]	12
CCCNC(=N)c1ccc(C(=O)Nc2ccc3c(c2)CCC(CC(=O)OCC)O3)cc1 (racemic) [Example 81, Hydrochloride]	0.39
CCOC(=O)CC1CCc2cc(NC(=O)/C=C/C3CCNCC3)ccc2O1 (racemic) [Example 77, Ethyl rac-(3,4-Dihydro-6-(N-(3-(piperidine-4-yl)propenoyl)amino)-2H-1-benzopyran-2-yl)acetate Trifluoroacetate]	1.3
CCCOC(=O)CC1CCc2cc(NC(=O)c3ccc(C(=N)N)cc3)ccc2O1 (racemic) [Example 86, hydrochloride]	0.078
COC(=O)CC1CCc2cc(NC(=O)c3ccc(C(=N)N)cc3)ccc2O1 (racemic) [Example 87, Hydrochloride]	0.084
CCCCNC(=N)c1ccc(C(=O)Nc2ccc3c(c2)CCC(CC(=O)OCC)O3)cc1 (racemic) [Example 83, Hydrochloride]	0.14
NC(=O)c1ccc(C(=O)Nc2ccc3c(c2)CCC(CC(=O)O)O3)cc1 (racemic) [Example 49, rac-(6-(N-(4-Carbamoylbenzoyl)amino)-3,4-dihydro-2H-1-benzopyran-2-yl)acetic Acid]	100
CCOC(=O)CC1CCc2cc(OCc3ccc(C(=N)N)cc3)ccc2O1 (racemic) [Example 45, Hydrochloride]	11
